Assay results taken from paper PMC9182141, “Assay Development and Identification of the First Plasmodium falciparum 7,8-dihydro-6-hydroxymethylpterin-pyrophosphokinase Inhibitors” (Molecules, 2022).

Experiments:
[1] = test system: Vero cell line (African green monkey kidney cells); assay: Cytotoxicity, sulforhodamine B assay, Vero cells; assay type: cell-based; conditions: Chlorocebus sabaeus, 72 h, when no IC50 could be determined, highest tested concentration noted
PfHPPK-GFP [2] = molecular target: T1, PfHPPK-GFP (Plasmodium falciparum, UniProt Q25704); assay: KinaseGlo enzyme inhibition assay; assay type: biochemical; conditions: 1 mM compound, 10 μM HMDP and 10 μM ATP, 20 min at RT; read-out: Inhib. at 1 mM (%)
T1 sequence (Q25704 entry or part of it): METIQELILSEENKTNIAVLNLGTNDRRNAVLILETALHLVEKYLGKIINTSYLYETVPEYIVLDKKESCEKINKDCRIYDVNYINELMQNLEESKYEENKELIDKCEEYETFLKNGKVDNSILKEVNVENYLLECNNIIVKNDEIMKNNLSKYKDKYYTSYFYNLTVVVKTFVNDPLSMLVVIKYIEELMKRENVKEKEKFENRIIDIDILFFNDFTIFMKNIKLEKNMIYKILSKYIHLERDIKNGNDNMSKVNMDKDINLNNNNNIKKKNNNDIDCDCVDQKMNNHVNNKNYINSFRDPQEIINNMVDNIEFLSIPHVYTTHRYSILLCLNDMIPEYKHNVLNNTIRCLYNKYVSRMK
Experimental: For all the compounds displaying a measurable change of Tm, PfHPPK inhibition was recorded at 10 μM HMDP and ATP and 1 mM compound using the KinaseGlo assay. These conditions were chosen to be in the reported Km range for both HMDP and ATP substrates, enabling detection of both competitive and uncompetitive inhibitors. Compounds were incubated with HMDP, ATP and HPPK-GFP for 20 min at RT, followed by addition of the KinaseGlo reagent. After 10 min equilibration, luminescence was recorded, which directly reflects the quantity of ATP left in solution at the end of the reaction. Percentages of inhibition were calculated based on a DMSO positive control and a negative control lacking HPPK-GFP. Compounds structures, ΔTm and levels of inhibition appear in Table 1 and Table 2.
PfHPPK-GFP inhibition assay was carried using the KinaseGlo Plus kit (Promega, Madison, WI, USA). In a black 96-well plate were dispensed test compounds (1 μL of 50 mM DMSO stock), master mix (100 mM Tris pH 9, 10 mM β-mercapto ethanol, 10 mM MgSO4, 0.01% w/v BSA, 10 μM HMDP and 10 μM ATP). Reaction was initiated by addition of 2 μg of enzyme, reaching a total reaction volume of 50 μL, and reaction was allowed to proceed for 20 min at RT shaking at 300 rpm. Reaction was then quenched by addition of 50 μL KinaseGlo reagent and allowed to equilibrate for 10 min at RT shaking at 300 rpm. Luminescence was recorded on a Biotek Synergy H1 plate reader (Agilent, Santa Clara, CA, USA) using an integration time of 1 s per well. Percentage of inhibition was calculated related to a positive control experiment (no enzyme added) and a negative control experiment (no inhibitor added).

[3] = Metabolic stability in rat liver microsomes; conditions: rat, liver microsomes
Experimental: (§1) Intrinsic clearance was also measured in both human and rat liver microsomes in order to assess sensitivity to metabolic degradation.
(§2) Metabolic stability of test compounds was determined in human and rat liver microsomes. The assay was adapted from a previously published method. Briefly, the test compounds were mixed with liver microsomes, and the metabolic reactions were initiated by the addition of NADPH. Acetonitrile containing an internal standard (labetalol) was added at 0, 5, 10, 30, and 60 min to stop the reactions. Samples were processed, and the remaining compounds in the reactions were detected using a LC-MS/MS. Distribution coefficient, solubility and polar surface area were predicted using Marvin software. Partition coefficient was predicted using ACD/Labs software.

[4] = Metabolic stability in human liver microsomes; conditions: human, liver microsomes
Experimental: as §1, §2

[5] = test system: KB cell line (human epithelial carcinoma cells); assay: Cytotoxicity, sulforhodamine B assay, KB cells; assay type: cell-based; conditions: 72 h, when no IC50 could be determined, highest tested concentration noted
PfHPPK-GFP [6] = molecular target: T1, PfHPPK-GFP; assay: KinaseGlo enzyme inhibition assay; assay type: biochemical; conditions: dose-response inhibition, read-out: IC50 against the enzyme
[7] = test system: Plasmodium falciparum TM4/8.2 (drug sensitive); assay: Antimalarial activity, [3H]-hypoxanthine incorporation assay, TM4/8.2; assay type: cell-based; conditions: P. falciparum TM4/8.2 (drug sensitive), when no IC50 could be determined, highest tested concentration noted
Experimental: (§3) Finally, the various hit compounds were tested for their antimalarial activity against P. falciparum TM4/8.2 [26] and V1/S [27] strains. Parasite cultures were treated with test compounds at different concentrations, and antimalarial activity was measured using [3H]-hypoxanthine incorporation assay, according to our previously reported protocol. […] IC50 values could not be measured for other compounds. At this stage, there is no explanation for the difference in antiparasitic activity observed between TM4/8.2 and V1/S strains, and more investigations would be needed to conclude on this effect.
(§4) Compounds were tested for their antimalarial activity against P. falciparum TM4/8.2 [26] and V1/S [27] strains according to our previously reported protocol. In brief, parasite strains were maintained continuously in human erythrocytes in RPMI1640 supplemented with 25 mM HEPES pH 7.4, 0.2% NaHCO3, 40 µg/mL gentamicin and 8% human serum at 37 °C under 3% CO2. For in vitro antimalarial assay, parasite was treated with serial dilutions of the inhibitors, and parasite survival was determined using a modified microdilution radioisotope technique.

[8] = test system: Plasmodium falciparum V1/S (drug resistant); assay: Antimalarial activity, [3H]-hypoxanthine incorporation assay, V1/S; assay type: cell-based; conditions: Plasmodium falciparum, P. falciparum V1/S (drug resistant); when no IC50 could be determined, highest tested concentration noted
Experimental: as §3, §4

PfHPPK-GFP [9] = molecular target: T1, PfHPPK-GFP; assay: DSF-GTP (GFP-tagged protein differential scanning fluorimetry) thermal shift; assay type: binding
Experimental: In a preliminary screening experiment, buffer conditions were investigated, searching for conditions that provide the largest thermal shift in the presence of 1 mM ATP. DSF curves were recorded under a total of 17 different conditions, with variations in buffer nature and pH, salts nature and concentration, effect of reducing agent, MgSO4 and glycerol.
From there, protein binding properties of the hit compounds were assessed experimentally using the developed DSF-GTP assay. A total of 54 compounds were tested, including virtual screening hits and closely related structures. According to our protocol, each compound was mixed with PfHPPK-GFP and submitted to a temperature gradient from 30 °C to 90 °C at 1 °C/min while GFP fluorescence was recorded. The first derivative of the resulting curve was used to determine the melting temperature (Tm). For each set of experiments, a negative control containing DMSO was added, and ΔTm values were calculated for each compound vs. the DMSO control. […] Two compound families were identified as the most promising by our DSF-GTP assay: 5-phenylazo-2,4-diaminopyrimidines (series 1) and phenyltriazolyl-2-amino-4-pyrimidinone (series 2). In series 2, linkers of different lengths that separate the phenyl triazolyl and the pyrimidine moieties were included.
In a typical DSF-GTP experiment, a master mix containing buffer and PfHPPK-GFP was prepared in a microcentrifuge tube, corresponding to a final protein concentration of 20 μg/mL. Ligands of interest were dispensed in low-profile 96-well plates (Bio-Rad) to 1 mM final concentration, and the master mix was dispensed to a final volume of 50 μL per well. In these conditions, DMSO content was maintained constant at 2%. The microplate was sealed with adhesive film and mixed by shaking for 2 min at 800 rpm at RT. The microplate was then submitted to a DSF run on a CFX96 RT-PCR (Bio-Rad, Hercules, CA, USA). DSF program was designed by starting with a 3 min equilibration phase at 30 °C, followed by a temperature gradient of 1 °C/min until 90 °C, recording fluorescence every 0.5 °C. Fluorescence was recorded using the FAM channel (λex = 450–490 nm, λem = 510–530 nm). Curves were fitted using the Precision Melt Analysis software (Bio-Rad).

PfHPPK = test system: PfHPPK; set-up: method as in PMID 19631695; conditions: substrate of monofunctional PfHPPK; cited from earlier work

| Structure (SMILES) | IC50 [1] | inhibition at 1000 µM (PfHPPK-GFP [2]) | microsomal CLint [3] | microsomal CLint [4] | IC50 [5] | IC50 (PfHPPK-GFP [6]) | IC50 [7] | IC50 [8] | ΔTm at 1000 µM (PfHPPK-GFP [9]; read-out: ΔTm (°C)) | Km (PfHPPK) | Tm (PfHPPK-GFP [9]; PfHPPK-GFP in optimal buffer in the presence of 1 mM ATP (apo form 81 °C)) |
| --- | --- | --- | --- | --- | --- | --- | --- | --- | --- | --- | --- |
| CCc1nc(N)[nH]c(=O)c1CCCc1cn(-c2cccc(C(=O)O)c2)nn1 [Compound 14, 2-Amino-6-ethyl-5-(3-(1-(3-(carboxy)phenyl)-1H-1,2,3-triazol-4-yl)propyl)pyrimidin-4(3H)-one] | > 50 µM | 42.8 ± 5.5% | 7.05 µL/min/mg | 4.88 µL/min/mg | > 50 µM | 814 ± 47 µM | > 50 µM | > 50 µM | -1.2 ± 0.3 °C | – | – |
| Nc1ncnc2c1ncn2[C@@H]1O[C@H](COP(=O)(O)OP(=O)(O)OP(=O)(O)O)[C@@H](O)[C@H]1O [ATP] | – | – | – | – | – | – | – | – | – | 13.2 µM | 80 °C |
